From ChEMBL document CHEMBL1155064, “Discovery of aminoquinolines as a new class of potent inhibitors of heat shock protein 90 (Hsp90): Synthesis, biology, and molecular modeling” (Bioorg Med Chem, 2008) come the findings set out here.

pIC50: −log10 of the molar value. Active and inactive are the calls of the source. The rule behind the calls is not given here. A value given as a limit tells only on which side of the number the result lay.

Experiment [1] addresses T1, Heat shock protein HSP90 (Homo sapiens, UniProt P07900+P08238). The experiment can be described thus: Inhibition of Hsp90 in human MCF7 cell lysates assessed as interaction with Cy3b-conjugated geldanamycin by FP assay. Format: cell-free.
For experiment [2], the target named is T1, Heat shock protein HSP90. The experiment can be described thus: Inhibition of Hsp90 in human MCF7 cells assessed as Her2 level after 24 hrs by Western blot. It is filed as cell-based.
The next experiment has as its system MCF7. Kind of experiment: Induction of Her2 degradation in human MCF7 cells after 24 hrs by Western blot analysis. Format: functional, cell-based. To be noted: MCF7, 24 h.

On to `CCN(CC)CCCNc1cc(OC)c(Nc2ccccc2)c2cccnc12`, for which the IC50 was found to be 2.1 µM on Heat shock protein HSP90 [1] and 25 µM at Heat shock protein HSP90 [2].

With `COc1cc(NCCCN(C(C)C)C(C)C)c2nc(OC)cc(Cl)c2c1`, at Heat shock protein HSP90 [1], the IC50 was > 50 µM. In addition, the result on Heat shock protein HSP90 [2] was inactive.

Regarding `CCCCN(CCCC)CCNc1cc(OC)cc2cccnc12`, the IC50 at Heat shock protein HSP90 [1] was 40 µM. In addition, the result at Heat shock protein HSP90 [2] was inactive.

Regarding `CCC(C)(C)NCCCCCNc1cc(OC)cc2cccnc12`, the IC50 at Heat shock protein HSP90 [1] was > 50 µM. At Heat shock protein HSP90 [2], the outcome was inactive.

For `CCCC(C)N(CC)CCNc1cc(OC)cc2cccnc12` (stereo unspecified), the IC50 on Heat shock protein HSP90 [1] was 8 µM. Also, the outcome on Heat shock protein HSP90 [2] was inactive.

In the case of `NCCCNc1cc(O)cc2cccnc12`, the IC50 on Heat shock protein HSP90 [1] is 7.6 µM. The outcome on Heat shock protein HSP90 [2] was inactive.

Regarding `CCC(N)CCNc1cc(O)cc2cccnc12` (stereo unspecified), the IC50 at Heat shock protein HSP90 [1] was < 1.6 µM. The outcome at Heat shock protein HSP90 [2] was inactive.

Take `CC(CCN(C)C)Nc1cc(O)cc2cccnc12` (stereo unspecified): the half-maximal inhibitory concentration (IC50) at Heat shock protein HSP90 [1] amounted to 0.8 µM; on Heat shock protein HSP90 [2], 30 µM.

As to `COc1cc(NCCCC(C)N)c2ncccc2c1.Cl.Cl` (stereo unspecified), the IC50 on Heat shock protein HSP90 [1] stood at 5.8 µM; at Heat shock protein HSP90 [2], 5 µM.

Consider `CCN(CC)CCCCNc1cc(O)cc2cccnc12`, for which the IC50 on Heat shock protein HSP90 [1] is > 50 µM. Moreover, the outcome on Heat shock protein HSP90 [2] was inactive.

With `COc1cc(NC(C)CCCN)c2ncccc2c1Oc1ccc(Cl)cc1` (stereo unspecified), the IC50 on Heat shock protein HSP90 [1] is > 50 µM. Moreover, at Heat shock protein HSP90 [2], the outcome was inactive.

With `CCCNCCCC(C)Nc1cc(OC)cc2c(C)ccnc12` (stereo unspecified), the IC50 at Heat shock protein HSP90 [1] was > 50 µM. For the same compound, on Heat shock protein HSP90 [2], the result was inactive.

For `CC(C)NCCCCCNc1cc(O)cc2cccnc12`, the IC50 at Heat shock protein HSP90 [1] is 2.4 µM; on Heat shock protein HSP90 [2], 6 µM.

As for `CC(N)CCCCNc1cc(O)cc2cccnc12` (stereo unspecified), the results for the IC50 at Heat shock protein HSP90 [1] and on Heat shock protein HSP90 [2] were < 1.6 µM and 20 µM, respectively.

For the compound `COc1ccc(Oc2c(OC)cc(NCCCCCNC(C)C)c3ncccc23)cc1`, the IC50 on Heat shock protein HSP90 [1] is > 50 µM. In addition, the result on Heat shock protein HSP90 [2] was inactive.

For `CC(CCCN)Nc1cc(O)cc2cccnc12` (stereo unspecified), the IC50 on Heat shock protein HSP90 [1] was 1.8 µM. Moreover, the result at Heat shock protein HSP90 [2] was inactive.

In the case of `CCN(CC)CCCNc1cc(OC)cc2ccc(OC)nc12`, the IC50 at Heat shock protein HSP90 [1] came to 14 µM. For the same compound, the result at Heat shock protein HSP90 [2] was inactive.

Consider `COc1cc(NCCN(C(C)C)C(C)C)c2ncccc2c1`, for which, at Heat shock protein HSP90 [1], the IC50 was 40 µM. In addition, on Heat shock protein HSP90 [2], the result was inactive.

For `CC(C)NCCCC(C)Nc1cc(O)cc2cccnc12` (stereo unspecified), at Heat shock protein HSP90 [1], the IC50 was < 1.6 µM. Also, the result at Heat shock protein HSP90 [2] was inactive.

As for `Br.CCN(CC)CCCCCNc1cc(O)cc2cccnc12`, the IC50 on Heat shock protein HSP90 [1] is 0.73 µM; at Heat shock protein HSP90 [2], 1 µM. The pIC50 with MCF7 is 6.00.

For the compound `COc1cc(NCCCCN)c2ncccc2c1`, the IC50 at Heat shock protein HSP90 [1] was > 50 µM; at Heat shock protein HSP90 [2], 25 µM.

On to `NCCCCNc1cc(O)cc2cccnc12`, for which the IC50 on Heat shock protein HSP90 [1] was < 1.6 µM. Moreover, the outcome at Heat shock protein HSP90 [2] was inactive.

On to `CC(N)CCCNc1cc(O)cc2cccnc12` (stereo unspecified), for which the IC50 at Heat shock protein HSP90 [1] was < 1.6 µM. Further, at Heat shock protein HSP90 [2], the outcome was inactive.

As to `COc1cc(NC(C)CCCNC(C)C)c2ncccc2c1OC` (stereo unspecified), the IC50 on Heat shock protein HSP90 [1] is 44 µM; on Heat shock protein HSP90 [2], 25 µM.

For `CCC(CC)NCCCNc1cc(OC)cc2cccnc12`, the IC50 on Heat shock protein HSP90 [1] was found to be 40 µM; on Heat shock protein HSP90 [2], 13 µM.

Turning to `CCN(CC)CCCC(C)Nc1cc(O)cc2cccnc12` (stereo unspecified), the IC50 on Heat shock protein HSP90 [1] came to 1.1 µM. Besides, on Heat shock protein HSP90 [2], the outcome was inactive.

With `COc1cc(NC(C)CCCNC(C)C)c2ncccc2c1` (stereo unspecified), the IC50 at Heat shock protein HSP90 [1] is 14.4 µM. On Heat shock protein HSP90 [2], the result was inactive.

Consider `NCCCCCNc1cc(O)cc2cccnc12`, for which the IC50 at Heat shock protein HSP90 [1] was < 1 µM; at Heat shock protein HSP90 [2], 20 µM.

For the compound `CCC(C)NCCNc1cc(OC)cc2cccnc12` (stereo unspecified), the pIC50 on Heat shock protein HSP90 [1] (read-out: IC50) is 5.51. In addition, the result on Heat shock protein HSP90 [2] was inactive.

For the compound `COc1cc(NCCN(CC(C)C)CC(C)C)c2ncccc2c1`, the figures for the IC50 on Heat shock protein HSP90 [1] and at Heat shock protein HSP90 [2] were 4.9 µM and 1.6 µM, respectively.
